{"source": "patent US6054435A", "about": "“6-O-substituted macrolides having antibacterial activity” (priority 1999, dated 2000)", "assay_in_all_cases": "in vitro antibacterial activity (MIC), agar dilution", "type_in_all_cases": "cell-based", "key": {"[1]": {"test_system": "Enterococcus faecium ATCC 8043", "settings": "organism code II; BHI agar, 35-37° C., 20 to 24 hours; unit assumed", "how_it_was_run": "(§1)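 MIC was taken by eye as the lowest drug level showing no growth, only haze or isolated colonies relative to the growth control. Organisms were replicator-spotted at 1:100 (Streptococcus 1:10) onto BHI agar plates containing serial compound dilutions, with a same-class reference antibiotic plate included.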"}, "Escherichia coli JUHL": {"test_system": "Escherichia coli JUHL", "settings": "organism code QQ; BHI agar, 35-37° C., 20 to 24 hours; unit assumed", "how_it_was_run": "as §1"}, "[2]": {"test_system": "Staphylococcus aureus CMX 642A", "settings": "organism code DD; BHI agar, 35-37° C., 20 to 24 hours; unit assumed", "how_it_was_run": "as §1"}, "[3]": {"test_system": "Streptococcus bovis A-5169", "settings": "organism code JJ; BHI agar, 35-37° C., 20 to 24 hours; unit assumed", "how_it_was_run": "as §1"}, "[4]": {"test_system": "Streptococcus pyogenes PIU 2548", "settings": "organism code NN; BHI agar, 35-37° C., 20 to 24 hours; unit assumed", "how_it_was_run": "as §1"}, "[5]": {"test_system": "Streptococcus Pneumonia 5649", "settings": "organism code ZZA; BHI agar, 35-37° C., 20 to 24 hours; unit assumed", "how_it_was_run": "as §1"}, "[6]": {"test_system": "Staphylococcus aureus A-5278", "settings": "organism code CC; BHI agar, 35-37° C., 20 to 24 hours; unit assumed", "how_it_was_run": "as §1"}, "Escherichia coli DC-2": {"test_system": "Escherichia coli DC-2", "settings": "organism code SS; BHI agar, 35-37° C., 20 to 24 hours; unit assumed", "how_it_was_run": "as §1"}, "[7]": {"test_system": "Streptococcus pyogenes 930", "settings": "organism code MM; BHI agar, 35-37° C., 20 to 24 hours; unit assumed", "how_it_was_run": "as §1"}, "[8]": {"test_system": "Streptococcus Pneumonia 5979", "settings": "organism code ZZ; BHI agar, 35-37° C., 20 to 24 hours; unit assumed", "how_it_was_run": "as §1"}, "[9]": {"test_system": "Streptococcus Pneumonia GYR 1171", "settings": "organism code YY; BHI agar, 35-37° C., 20 to 24 hours; unit assumed", "how_it_was_run": "as §1"}, "[10]": {"test_system": "Staphylococcus aureus CMX 553", "settings": "organism code FF; BHI agar, 35-37° C., 20 to 24 hours; unit assumed", "how_it_was_run": "as §1"}, "[11]": {"test_system": "Streptococcus agalactiae CMX 508", "settings": "organism code KK; BHI agar, 35-37° C., 20 to 24 hours; unit assumed", "how_it_was_run": "as §1"}, "[12]": {"test_system": "Staphylococcus epidermidis 3519", "settings": "organism code HH; BHI agar, 35-37° C., 20 to 24 hours; unit assumed", "how_it_was_run": "as §1"}, "[13]": {"test_system": "Staphylococcus aureus 1775", "settings": "organism code GG; BHI agar, 35-37° C., 20 to 24 hours; unit assumed", "how_it_was_run": "as §1"}, "[14]": {"test_system": "Nocardia Asteroides ATCC9970", "settings": "organism code VV; BHI agar, 35-37° C., 20 to 24 hours; unit assumed", "how_it_was_run": "as §1"}, "[15]": {"test_system": "Haemophilis Influenzae DILL AMP R", "settings": "organism code WW; BHI agar, 35-37° C., 20 to 24 hours; unit assumed", "how_it_was_run": "as §1"}, "[16]": {"test_system": "Streptococcus pyogenes EES61", "settings": "organism code LL; BHI agar, 35-37° C., 20 to 24 hours; unit assumed", "how_it_was_run": "as §1"}, "[17]": {"test_system": "Micrococcus luteus ATCC 4698", "settings": "organism code PP; BHI agar, 35-37° C., 20 to 24 hours; unit assumed", "how_it_was_run": "(§2)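 Plates of BHI agar were prepared with twelve aqueous dilutions of compound, then inoculated at 1:100 dilution, or 1:10 for slow growers like Streptococcus. After incubation they were inspected, and the lowest concentration yielding no growth, slight haze or sparse colonies was recorded as MIC.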"}, "[18]": {"test_system": "Micrococcus luteus ATCC 9341", "settings": "organism code OO; BHI agar, 35-37° C., 20 to 24 hours; unit assumed", "how_it_was_run": "as §2"}, "Escherichia coli SS": {"test_system": "Escherichia coli SS", "settings": "organism code RR; BHI agar, 35-37° C., 20 to 24 hours; unit assumed", "how_it_was_run": "as §1"}, "[19]": {"test_system": "Staphylococcus aureus NCTC10649M", "settings": "organism code EE; BHI agar, 35-37° C., 20 to 24 hours; unit assumed", "how_it_was_run": "as §1"}, "Candida albicans CCH 442": {"test_system": "Candida albicans CCH 442", "settings": "organism code TT; BHI agar, 35-37° C., 20 to 24 hours; unit assumed", "how_it_was_run": "as §1"}, "[20]": {"test_system": "Mycobacterium smegmatis ATCC 114", "settings": "organism code UU; BHI agar, 35-37° C., 20 to 24 hours; unit assumed", "how_it_was_run": "as §1"}, "[21]": {"test_system": "Streptococcus Pneumonia ATCC6303", "settings": "organism code XX; BHI agar, 35-37° C., 20 to 24 hours; unit assumed", "how_it_was_run": "as §1"}, "[22]": {"test_system": "Staphylococcus aureus A5177", "settings": "organism code BB; BHI agar, 35-37° C., 20 to 24 hours; unit assumed", "how_it_was_run": "as §1"}, "[23]": {"test_system": "Staphylococcus aureus ATCC 6538P", "settings": "organism code AA; BHI agar, 35-37° C., 20 to 24 hours; unit assumed", "how_it_was_run": "as §1"}}}
{"compound": "CC[C@H]1OC(=O)[C@H](C)C(=O)[C@H](C)[C@@H](O[C@@H]2O[C@H](C)C[C@H](N(C)C)[C@H]2O)[C@](C)(OCC#Cc2ccc(-c3nccn3C)s2)C[C@@H](C)C(=O)[C@H](C)[C@H]2NC(=O)O[C@@]21C", "note": "[Example 32]", "values": [{"measurement": "MIC", "setting": "[1]", "result": 0.02, "unit": "µg/mL"}, {"measurement": "MIC", "setting": "Escherichia coli JUHL", "result": 50, "unit": "µg/mL"}, {"measurement": "MIC", "setting": "[2]", "result": 0.05, "unit": "µg/mL"}, {"measurement": "MIC", "setting": "[3]", "result": "≤ 0.005", "unit": "µg/mL"}, {"measurement": "MIC", "setting": "[4]", "result": 0.39, "unit": "µg/mL"}, {"measurement": "MIC", "setting": "[5]", "result": 0.25, "unit": "µg/mL"}, {"measurement": "MIC", "setting": "[6]", "result": "> 100", "unit": "µg/mL"}, {"measurement": "MIC", "setting": "Escherichia coli DC-2", "result": "> 100", "unit": "µg/mL"}, {"measurement": "MIC", "setting": "[7]", "result": 12.5, "unit": "µg/mL"}, {"measurement": "MIC", "setting": "[8]", "result": 0.25, "unit": "µg/mL"}, {"measurement": "MIC", "setting": "[9]", "result": 0.03, "unit": "µg/mL"}, {"measurement": "MIC", "setting": "[10]", "result": 0.05, "unit": "µg/mL"}, {"measurement": "MIC", "setting": "[11]", "result": 0.01, "unit": "µg/mL"}, {"measurement": "MIC", "setting": "[12]", "result": 0.1, "unit": "µg/mL"}, {"measurement": "MIC", "setting": "[13]", "result": "> 100", "unit": "µg/mL"}, {"measurement": "MIC", "setting": "[14]", "result": 0.01, "unit": "µg/mL"}, {"measurement": "MIC", "setting": "[15]", "result": 2, "unit": "µg/mL"}, {"measurement": "MIC", "setting": "[16]", "result": 0.01, "unit": "µg/mL"}, {"measurement": "MIC", "setting": "[17]", "result": 0.05, "unit": "µg/mL"}, {"measurement": "MIC", "setting": "[18]", "result": 0.01, "unit": "µg/mL"}, {"measurement": "MIC", "setting": "Escherichia coli SS", "result": 0.2, "unit": "µg/mL"}, {"measurement": "MIC", "setting": "[19]", "result": 0.1, "unit": "µg/mL"}, {"measurement": "MIC", "setting": "Candida albicans CCH 442", "result": "> 100", "unit": "µg/mL"}, {"measurement": "MIC", "setting": "[20]", "result": 1.56, "unit": "µg/mL"}, {"measurement": "MIC", "setting": "[21]", "result": 0.03, "unit": "µg/mL"}, {"measurement": "MIC", "setting": "[22]", "result": 0.05, "unit": "µg/mL"}, {"measurement": "MIC", "setting": "[23]", "result": 0.05, "unit": "µg/mL"}]}
{"compound": "CC[C@H]1OC(=O)[C@H](C)C(=O)[C@H](C)[C@@H](O[C@@H]2O[C@H](C)C[C@H](N(C)C)[C@H]2O)[C@](C)(OC/C=C/c2ccc(-c3cccs3)s2)C[C@@H](C)C(=O)[C@H](C)[C@H]2NC(=O)O[C@@]21C", "note": "[Example 74]", "values": [{"measurement": "MIC", "setting": "[1]", "result": 0.02, "unit": "µg/mL"}, {"measurement": "MIC", "setting": "Escherichia coli JUHL", "result": 100, "unit": "µg/mL"}, {"measurement": "MIC", "setting": "[2]", "result": 0.1, "unit": "µg/mL"}, {"measurement": "MIC", "setting": "[3]", "result": 0.02, "unit": "µg/mL"}, {"measurement": "MIC", "setting": "[4]", "result": 0.1, "unit": "µg/mL"}, {"measurement": "MIC", "setting": "[5]", "result": 0.25, "unit": "µg/mL"}, {"measurement": "MIC", "setting": "[6]", "result": 50, "unit": "µg/mL"}, {"measurement": "MIC", "setting": "Escherichia coli DC-2", "result": "> 100", "unit": "µg/mL"}, {"measurement": "MIC", "setting": "[7]", "result": "> 100", "unit": "µg/mL"}, {"measurement": "MIC", "setting": "[8]", "result": 2, "unit": "µg/mL"}, {"measurement": "MIC", "setting": "[9]", "result": "≤ 0.004", "unit": "µg/mL"}, {"measurement": "MIC", "setting": "[10]", "result": 0.1, "unit": "µg/mL"}, {"measurement": "MIC", "setting": "[11]", "result": "≤ 0.005", "unit": "µg/mL"}, {"measurement": "MIC", "setting": "[12]", "result": 0.1, "unit": "µg/mL"}, {"measurement": "MIC", "setting": "[13]", "result": 25, "unit": "µg/mL"}, {"measurement": "MIC", "setting": "[14]", "result": 0.1, "unit": "µg/mL"}, {"measurement": "MIC", "setting": "[15]", "result": 4, "unit": "µg/mL"}, {"measurement": "MIC", "setting": "[16]", "result": 0.01, "unit": "µg/mL"}, {"measurement": "MIC", "setting": "[17]", "result": 0.1, "unit": "µg/mL"}, {"measurement": "MIC", "setting": "[18]", "result": 0.02, "unit": "µg/mL"}, {"measurement": "MIC", "setting": "Escherichia coli SS", "result": 0.39, "unit": "µg/mL"}, {"measurement": "MIC", "setting": "[19]", "result": 0.2, "unit": "µg/mL"}, {"measurement": "MIC", "setting": "Candida albicans CCH 442", "result": "> 100", "unit": "µg/mL"}, {"measurement": "MIC", "setting": "[20]", "result": 0.39, "unit": "µg/mL"}, {"measurement": "MIC", "setting": "[21]", "result": "≤ 0.004", "unit": "µg/mL"}, {"measurement": "MIC", "setting": "[22]", "result": 0.1, "unit": "µg/mL"}, {"measurement": "MIC", "setting": "[23]", "result": 0.1, "unit": "µg/mL"}]}
